Measured values: patent US7005432B2, “Substituted imidazol-pyridazine derivatives” (Hoffman-La Roche Inc., priority 2002, dated 2006)
Where a name gives a salt, the structure may show the parent alone.

Target: T1, NMDA-receptor subtype 2B (Rattus norvegicus, UniProt P35439+Q00960)
T1 construct: Membranes were prepared by homogenization of the whole brain minus cerebellum and medulla oblongata; from tissue; host or cells: rat whole brain minus cerebellum and medulla oblongata (membranes)
Experiment: 3H-Ro 25-6981 binding (displacement) on rat brain membranes
Settings: displacement of 5 nM 3H-Ro 25-6981, rat whole brain (minus cerebellum and medulla oblongata) membranes, 2 hours at 4° C., Tris-HCl 50 mM pH 7.4
Experimental: ^3H-Ro 25-6981 binding (Ro 25-6981 is [R-(R*,S*)]-α-(4-hydroxy-phenyl)-β-methyl-4-(phenyl-methyl)-1-piperidine propanol)
Male Füllinsdorf albino rats weighing between 150-200 g were used. Membranes were prepared by homogenization of the whole brain minus cerebellum and medulla oblongata with a Polytron (10.000 rpm, 30 seconds), in 25 volumes of a cold Tris-HCl 50 mM, EDTA 10 mM, pH 7.1 buffer. The homogenate was centrifuged at 48,000 g for 10 minutes at 4° C. The pellet was resuspended using the Polytron in the same volume of buffer and the homogenate was incubated at 37° C. for 10 minutes. After centrifugation the pellet was homogenized in the same buffer and frozen at −80° C. for at least 16 hours but not more than 10 days. For the binding assay the homogenate was thawed at 37° C., centrifuged and the pellet was washed three times as above in a Tris-HCl 5 mM, pH 7.4 cold buffer. The final pellet was resuspended in the same buffer and used at a final concentration of […].
^3H-Ro 25-6981 binding experiments were performed using a Tris-HCl 50 mM, pH 7.4 buffer. For displacement experiments 5 nM of ^3H-Ro 25-6981 were used and non specific binding was measured using 10 mM of tetrahydroisoquinoline and usually it accounts for 10% of the total. The incubation time was 2 hours at 4° C. and the assay was stopped by filtration on Whatmann GF/B glass fiber filters (Unifilter-96, Packard, Zürich, Switzerland). The filters were washed 5 times with cold buffer. The radioactivity on the filter was counted on a Packard Top-coullt microplate scintillation counter after addition of […] of microscint 40 (Canberra Packard S.A., Zürich, Switzerland).
The effects of compounds were measured using a minimum of 8 concentrations and repeated at least once. The pooled normalized values were analyzed using a non-linear regression calculation program which provide IC50 with their relative upper and lower 95% confidence limits.

T1 sequence (Q00960 27-1482, other chains not shown): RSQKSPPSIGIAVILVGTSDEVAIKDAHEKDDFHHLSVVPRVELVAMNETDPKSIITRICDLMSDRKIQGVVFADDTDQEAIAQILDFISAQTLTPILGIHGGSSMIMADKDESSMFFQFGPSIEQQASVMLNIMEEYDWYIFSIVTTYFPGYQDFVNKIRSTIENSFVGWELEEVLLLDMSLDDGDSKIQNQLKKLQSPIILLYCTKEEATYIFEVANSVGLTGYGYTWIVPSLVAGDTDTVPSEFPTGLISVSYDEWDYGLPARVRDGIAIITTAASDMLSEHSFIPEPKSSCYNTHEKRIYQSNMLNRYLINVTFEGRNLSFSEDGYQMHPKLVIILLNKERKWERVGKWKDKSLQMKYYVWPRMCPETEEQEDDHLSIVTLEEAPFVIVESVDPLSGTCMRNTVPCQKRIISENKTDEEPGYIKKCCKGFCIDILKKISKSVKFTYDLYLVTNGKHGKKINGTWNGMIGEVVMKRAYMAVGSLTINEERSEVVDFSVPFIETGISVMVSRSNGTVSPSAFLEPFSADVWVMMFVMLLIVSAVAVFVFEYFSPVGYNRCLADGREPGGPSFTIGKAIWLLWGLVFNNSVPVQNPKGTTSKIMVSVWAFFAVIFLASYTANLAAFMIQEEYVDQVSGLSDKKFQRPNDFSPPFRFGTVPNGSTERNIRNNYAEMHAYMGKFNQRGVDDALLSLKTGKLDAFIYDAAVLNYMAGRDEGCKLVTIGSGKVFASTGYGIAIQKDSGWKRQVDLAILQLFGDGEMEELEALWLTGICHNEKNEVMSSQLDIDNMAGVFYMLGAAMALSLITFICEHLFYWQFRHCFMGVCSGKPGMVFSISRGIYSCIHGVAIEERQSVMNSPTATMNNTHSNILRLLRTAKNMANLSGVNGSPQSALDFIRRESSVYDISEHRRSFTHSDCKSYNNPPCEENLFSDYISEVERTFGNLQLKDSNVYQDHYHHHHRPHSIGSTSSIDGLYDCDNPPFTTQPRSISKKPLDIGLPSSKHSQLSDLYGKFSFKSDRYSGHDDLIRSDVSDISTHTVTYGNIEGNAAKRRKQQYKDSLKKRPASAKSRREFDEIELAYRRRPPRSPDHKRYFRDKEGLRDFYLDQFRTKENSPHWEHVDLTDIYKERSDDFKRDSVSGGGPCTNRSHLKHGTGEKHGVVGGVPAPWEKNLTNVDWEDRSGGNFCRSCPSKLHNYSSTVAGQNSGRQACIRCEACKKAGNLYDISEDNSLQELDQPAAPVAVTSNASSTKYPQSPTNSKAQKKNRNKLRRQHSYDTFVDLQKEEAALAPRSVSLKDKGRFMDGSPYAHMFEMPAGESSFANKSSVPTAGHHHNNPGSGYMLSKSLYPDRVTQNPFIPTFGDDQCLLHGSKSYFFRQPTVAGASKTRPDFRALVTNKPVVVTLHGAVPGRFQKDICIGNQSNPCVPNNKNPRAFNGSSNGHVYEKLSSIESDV

Compound | IC50 [nM]
Cc1nccn1Cc1cc(-c2ccc(F)c(Cl)c2)cnn1 [Example 1, 5-(3-Chloro-4-fluoro-phenyl)-3-(2-methyl-imidazol-1-yl-methyl)-pyridazine Hydrochloride] | 21
Cc1nccn1Cc1cc(-c2ccc(Cl)c(Cl)c2)cnn1 [Example 13, 5-(3,4-Dichloro-phenyl)-3-(2-methyl-imidazol-1-yl-methyl)-pyridazine hydrochloride] | 11
COc1cc(-c2cnnc(Cn3ccnc3C)c2)c2ccccc2c1 [Example 49, 5-(3-Methoxy-naphthalen-1-yl)-3-(2-methyl-imidazol-1-yl-methyl)-pyridazine hydrochloride] | 34
COc1ccc2cc(-c3cnnc(Cn4ccnc4C)c3)ccc2c1 [Example 27, 5-(6-Methoxy-naphthalen-2-yl)-3-(2-methyl-imidazol-1-yl-methyl)-pyridazine hydrochloride] | 44
Cc1nccn1Cc1cc(-c2cccc(C(F)(F)F)c2F)cnn1 [Example 58, 5-(2-Fluoro-3-trifluoromethyl-phenyl)-3-(2-methyl-imidazol-1-yl-methyl)-pyridazine hydrochloride] | 37
Cc1nccn1Cc1cc(C2=Cc3ccccc3CC2)cnn1 [Example 68, 5-(3,4-Dihydro-naphthalen-2-yl)-3-(2-methyl-imidazol-1-yl-methyl)-pyridazine hydrochloride] | 27
Cc1nccn1Cc1cc(-c2ccc(F)c(C(C)(F)F)c2)cnn1 [Example 11, 5-[3-(1,1-Difluoro-ethyl)-4-fluoro-phenyl]-3-(2-methyl-imidazol-1-yl-methyl)-pyridazine hydrochloride] | 29
Cc1nccn1Cc1cc(-c2ccc(Cl)c(C(F)(F)F)c2)cnn1 [Example 4, 5-(4-Chloro-3-trifluoromethyl-phenyl)-3-(2-methyl-imidazol-1-yl-methyl)-pyridazine hydrochloride] | 27
COc1cccc2c(-c3cnnc(Cn4ccnc4C)c3)cccc12 [Example 36, 5-(5-Methoxy-naphthalen-1-yl)-3-(2-methyl-imidazol-1-yl-methyl)-pyridazine hydrochloride] | 77
Cc1nccn1Cc1cc(-c2ccc3sccc3c2)cnn1 [Example 15, 5-Benzo[b]thiophen-5-yl-3-(2-methyl-imidazol-1-yl-methyl)-pyridazine hydrochloride] | 16
Cc1nccn1Cc1cc(-c2cccc(C(C)C)c2)cnn1 [Example 42, 5-(3-Isopropyl-phenyl)-3-(2-methyl-imidazol-1-yl-methyl)-pyridazine hydrochloride] | 48
COc1cc(-c2cnnc(Cn3ccnc3C)c2)ccc1Cl [Example 41, 5-(4-Chloro-3-methoxy-phenyl)-3-(2-methyl-imidazol-1-yl-methyl)-pyridazine hydrochloride] | 41
Cc1nccn1Cc1cc(-c2cccc3ccccc23)cnn1 [Example 35, 3-(2-Methyl-imidazol-1-yl-methyl)-5-naphthalen-1-yl-pyridazine hydrochloride] | 25
Cc1nccn1Cc1cc(-c2cc(F)cc(C(F)F)c2)cnn1 [Example 24, 5-(3-Difluoromethyl-5-fluoro-phenyl)-3-(2-methyl-imidazol-1-yl-methyl)-pyridazine hydrochloride] | 47
Cc1nccn1Cc1cc(-c2cccc(C(C)(F)F)c2)cnn1 [Example 9, 5-[3-(1,1-Difluoro-ethyl)-phenyl]-3-(2-methyl-imidazol-1-yl-methyl)-pyridazine hydrochloride] | 34
Cc1nccn1Cc1cc(-c2ccc(F)c3ccccc23)cnn1 [Example 50, 5-(4-Fluoro-naphthalen-1-yl)-3-(2-methyl-imidazol-1-yl-methyl)-pyridazine hydrochloride] | 29

Compound | IC50 [nM]
5-(3-Difluoromethyl-4-fluoro-phenyl)-3-(2-ethyl-imidazol-1-ylethyl)-pyridazine hydrochloride [Example 52] | 26
Cc1nccn1Cc1cc(-c2cccc(C(F)F)c2)cnn1 [Example 25, 5-(3-Difluoromethyl-phenyl)-3-(2-methyl-imidazol-1-yl-methyl)-pyridazine hydrochloride] | 58
Cc1nccn1Cc1cc(-c2cc(F)cc(C(C)(F)F)c2)cnn1 [Example 31, 5-[3-(1,1-Difluoro-ethyl)-5-fluoro-phenyl]-3-(2-methyl-imidazol-1-yl-methyl)-pyridazine hydrochloride] | 31
COc1cc(-c2cnnc(Cn3ccnc3C)c2)cc(C(F)(F)F)c1 [Example 38, 5-(3-Methoxy-5-trifluoromethyl-phenyl)-3-(2-methyl-imidazol-1-yl-methyl)-pyridazine hydrochloride] | 54
Cc1nccn1Cc1cc(-c2ccc3ccccc3c2)cnn1 [Example 12, 3-(2-Methyl-imidazol-1-ylmethyl)-5-naphthalen-2-yl-pyridazine-hydrochloride] | 22
Cc1nccn1Cc1cc(-c2cccc(C(C)(C)C)c2)cnn1 [Example 34, 5-(3-tert-Butyl-phenyl)-3-(2-methyl-imidazol-1-yl-methyl)-pyridazine hydrochloride] | 68
Cc1nccn1Cc1cc(-c2ccc(Cl)c(C(F)F)c2)cnn1 [Example 26, 5-(4-Chloro-3-difluoromethyl-phenyl)-3-(2-methyl-imidazol-1-yl-methyl)-pyridazine hydrochloride] | 12
COc1ccc2ccc(-c3cnnc(Cn4ccnc4C)c3)cc2c1 [Example 48, 5-(7-Methoxy-naphthalen-2-yl)-3-(2-methyl-imidazol-1-yl-methyl)-pyridazine hydrochloride] | 35
Cc1nccn1Cc1cc(-c2ccc(F)c(C(F)(F)F)c2)cnn1 [Example 3, 5-(4-Fluoro-3-trifluoromethyl-phenyl)-3-(2-methyl-imidazol-1-yl-methyl)-pyridazine hydrochloride] | 38
Cc1cc(-c2cnnc(Cn3ccnc3C)c2)ccc1Cl [Example 30, 5-(4-Chloro-3-methyl-phenyl)-3-(2-methyl-imidazol-1-yl-methyl)-pyridazine hydrochloride] | 7
Cc1nccn1Cc1cc(-c2ccc3c4c(cccc24)CC3)cnn1 [Example 45, 5-Acenaphthen-5-yl-3-(2-methyl-imidazol-1-yl-methyl)-pyridazine hydrochloride] | 57
Cc1nccn1Cc1cc(-c2ccc(Cl)c(C(C)(F)F)c2)cnn1 [Example 39, 5-[4-Chloro-3-(1,1-difluoro-ethyl)-phenyl]-3-(2-methyl-imidazol-1-yl-methyl)-pyridazine hydrochloride] | 24
Cc1nccn1Cc1cc(-c2ccc(F)c(C(F)F)c2)cnn1 [Example 6, 5-(3-Difluoromethyl-4-fluoro-phenyl)-3-(2-methyl-imidazol-1-yl-methyl)-pyridazine hydrochloride] | 17
Cc1nccn1Cc1cc(-c2cccc(C3CC3)c2)cnn1 [Example 14, 5-(3-Cyclopropyl-phenyl)-3-(2-methyl-imidazol-1-yl-methyl)-pyridazine hydrochloride] | 20
Cc1cc(-c2cnnc(Cn3ccnc3C)c2)ccc1F [Example 16, 5-(4-Fluoro-3-methyl-phenyl)-3-(2-methyl-imidazol-1-yl-methyl)-pyridazine hydrochloride] | 10
